Assay results: ChEMBL document CHEMBL5385939, “Novel ether derivatives of 11-azaartemisinins with high order antimalarial activity against multidrug-resistant Plasmodium yoelii in Swiss mice” (2024)
Calls of active or inactive are those of the source. No cut-off for these calls is given here.

Tests used:
[1] = test system: Plasmodium yoelii; test: Antimalarial activity against multidrug resistant Plasmodium yoelii infected in swiss mouse assessed as reduction in parasitaemia at 24 mg/kg, IM administered for 4 days; assay type: functional; design: scale not given: the % may be the effect or the level left; settings: time 4 day
[2] = test system: Plasmodium yoelii; test: Antimalarial activity against multidrug resistant Plasmodium yoelii infected in swiss mouse assessed as increase in survival time at 24 mg/kg, IM administered for 4 days and measured on day 28; assay type: functional, organism-based; settings: time 28.0 day
[3] = test system: Plasmodium yoelii; test: Antimalarial activity against multidrug resistant Plasmodium yoelii infected in swiss mouse assessed as reduction in parasitaemia at 12 mg/kg, po administered for 4 days; assay type: functional; design: scale not given: the % may be the effect or the level left; settings: time 4 day
[4] = test system: Plasmodium yoelii; test: Antimalarial activity against multidrug resistant Plasmodium yoelii infected in swiss mouse assessed as reduction in parasitaemia at 24 mg/kg, po administered for 4 days; assay type: functional; design: scale not given: the % may be the effect or the level left; settings: time 4 day
[5] = test system: Plasmodium yoelii; test: Antimalarial activity against multidrug resistant Plasmodium yoelii infected in swiss mouse assessed as increase in survival time at 12 mg/kg, po administered for 4 days and measured on day 28; assay type: functional, organism-based; settings: time 28.0 day
[6] = test system: Plasmodium yoelii; test: Antimalarial activity against multidrug resistant Plasmodium yoelii infected in swiss mouse assessed as reduction in parasitaemia at 12 mg/kg, IM administered for 4 days; assay type: functional; design: scale not given: the % may be the effect or the level left; settings: time 4 day
[7] = test system: Plasmodium yoelii; test: Antimalarial activity against multidrug resistant Plasmodium yoelii infected in swiss mouse assessed as increase in survival time at 48 mg/kg, IM administered for 4 days and measured on day 28; assay type: functional, organism-based; settings: time 28.0 day
[8] = test system: Plasmodium yoelii; test: Antimalarial activity against multidrug resistant Plasmodium yoelii infected in swiss mouse assessed as reduction in parasitaemia at 48 mg/kg, IM administered for 4 days; assay type: functional; design: scale not given: the % may be the effect or the level left; settings: time 4 day
[9] = test system: Plasmodium yoelii; test: Antimalarial activity against multidrug resistant Plasmodium yoelii infected in swiss mouse assessed as increase in survival time at 24 mg/kg, po administered for 4 days and measured on day 28; assay type: functional, organism-based; settings: time 28.0 day
[10] = test system: Plasmodium yoelii; test: Antimalarial activity against multidrug resistant Plasmodium yoelii infected in swiss mouse assessed as increase in survival time at 12 mg/kg, IM administered for 4 days and measured on day 28; assay type: functional, organism-based; settings: time 28.0 day
[11] = test system: Plasmodium yoelii; test: Antimalarial activity against multidrug resistant Plasmodium yoelii infected in swiss mouse assessed as reduction in parasitaemia at 6 mg/kg, IM administered for 4 days; assay type: functional; design: scale not given: the % may be the effect or the level left; settings: time 4 day
[12] = test system: Plasmodium yoelii; test: Antimalarial activity against multidrug resistant Plasmodium yoelii infected in swiss mouse assessed as increase in survival time at 6 mg/kg, IM administered for 4 days and measured on day 28; assay type: functional, organism-based; settings: time 28.0 day
[13] = test system: Plasmodium yoelii; test: Antimalarial activity against multidrug resistant Plasmodium yoelii infected in swiss mouse assessed as reduction in parasitaemia at 3 mg/kg, IM administered for 4 days; assay type: functional; design: scale not given: the % may be the effect or the level left; settings: time 4 day
[14] = test system: Plasmodium yoelii; test: Antimalarial activity against multidrug resistant Plasmodium yoelii infected in swiss mouse assessed as increase in survival time at 3 mg/kg, IM administered for 4 days and measured on day 28; assay type: functional, organism-based; settings: time 28.0 day
[15] = test system: Plasmodium yoelii; test: Antimalarial activity against multidrug resistant Plasmodium yoelii infected in swiss mouse assessed as increase in survival time at 48 mg/kg, po administered for 4 days and measured on day 28; assay type: functional, organism-based; settings: time 28.0 day
[16] = test system: Plasmodium yoelii; test: Antimalarial activity against multidrug resistant Plasmodium yoelii infected in swiss mouse assessed as reduction in parasitaemia at 48 mg/kg, po administered for 4 days; assay type: functional; design: scale not given: the % may be the effect or the level left; settings: time 4 day

Compound | Activity [4] | Activity [6] | Activity [10] | Activity [11] | further results
C[C@@H]1CC[C@H]2[C@@H](C)C(=O)N(N)[C@@H]3O[C@@]4(C)CC[C@@H]1[C@@]23OO4 | 100% | – | – | – | Activity [1]: 100%; Activity [2]: inactive; Activity [3]: 99%; Activity [5]: inactive
C[C@@H]1CC[C@H]2[C@@H](C)C(=O)N(OCc3ccc([N+](=O)[O-])cc3)[C@@H]3O[C@@]4(C)CC[C@@H]1[C@@]23OO4 | 100% | 100% | – | – | –
C[C@@H]1CC[C@H]2[C@@H](C)C(=O)N(O)[C@@H]3O[C@@]4(C)CC[C@@H]1[C@@]23OO4 | – | – | – | – | Activity [7]: inactive; Activity [8]: 78%
C[C@@H]1CC[C@H]2[C@@H](C)C(=O)N(OCCCc3ccccc3)[C@@H]3O[C@@]4(C)CC[C@@H]1[C@@]23OO4 | 94% | 81% | inactive | – | Activity [9]: inactive
C[C@@H]1CC[C@H]2[C@@H](C)C(=O)N(CCOCCCc3ccccc3)[C@@H]3O[C@]4(C)CC[C@@H]1[C@@]23OO4 | 100% | 91% | inactive | 100% | –
C[C@@H]1CC[C@H]2[C@@H](C)C(=O)N(CCOCc3ccc([N+](=O)[O-])cc3)[C@@H]3O[C@@]4(C)CC[C@@H]1[C@@]23OO4 | 90% | 100% | Active | 100% | Activity [12]: inactive; Activity [9]: inactive
C[C@@H]1CC[C@H]2[C@@H](C)C(=O)N(CCOCc3ccccc3F)[C@@H]3O[C@@]4(C)CC[C@@H]1[C@@]23OO4 | 100% | 100% | – | – | –
C[C@@H]1CC[C@H]2[C@@H](C)C(=O)N(CCOCc3ccccc3)[C@@H]3O[C@]4(C)CC[C@@H]1[C@@]23OO4 | 100% | 100% | Active | 100% | Activity [12]: inactive
C[C@@H]1CC[C@H]2[C@@H](C)C(=O)N(NCc3ccc(Br)cc3)[C@@H]3O[C@@]4(C)CC[C@@H]1[C@@]23OO4 | 100% | 100% | – | – | –
CCOC1O[C@@H]2O[C@@]3(C)CC[C@H]4[C@H](C)CC[C@@H]([C@H]1C)[C@@]24OO3 (stereo partly specified) | 100% | 100% | Active | 100% | Activity [12]: Active; Activity [13]: 100%; Activity [14]: inactive; Activity [15]: Active
C[C@@H]1CC[C@H]2[C@@H](C)C(=O)N(CCOCc3ccc(-c4ccccc4)cc3)[C@@H]3O[C@@]4(C)CC[C@@H]1[C@@]23OO4 | 100% | 100% | – | – | –
C[C@@H]1CC[C@H]2[C@@H](C)C(=O)N(CCO)[C@@H]3O[C@@]4(C)CC[C@@H]1[C@@]23OO4 | 10% | – | – | – | Activity [8]: 100%; Activity [16]: 100%; Activity [15]: inactive
